Patent US6596289B1, “Anti-cellulite pantyhose” (priority 1998, dated 2003)

Assay: Extraction and measurement of candidate molecules from loaded pantyhose in buffer
Type: physicochemical
Conditions: for bonding to the fabric: conclusion from data of Table I; for Micrograms per/cm^2 @ 2 hr (amount extracted) / Micrograms per/cm @ 4 hr (amount extracted): swatch of treated fabric immersed in buffer solution; for Micrograms per/cm @ 4 hr (amount extracted): four hours
Procedure: Step 1: Determining UV Max Absorbance nm of Test Substances
Prepare 0.2% aqueous solutions of the substance to be tested, and run a UV/VIS scan on a scanning spectrophotometer. Note the peak absorbance level of the scan. The wave length at which this occurs is the UV Max value for that candidate.
Step 2: Running Standard Curves of Candidate Molecules
Prepare standards of the test substances at the following concentrations: 400 uM, 200 uM, 100 uM, 50 uM and 25 uM. Read at the appropriate wavelength. Plot the absorbance readings vs candidate concentration to check linearity.
Step 3: Loading Pantyhose with Candidate Molecules a. Wash pantyhose two times with water. b. Treat pantyhose with 1% solution of polyethylenimine (PEI) with constant agitation for 30 minutes. c. Wash pantyhose with water. d. Treat pantyhose with 0.2% of the test substance with constant agitation for three hours. e. Wash pantyhose and allow to dry.
Step 4: Extraction and Measurement of Candidate Molecules from Pantyhose Six sections were removed from each pair of hose, two sections from each of the foot, calf and thigh. A two piece, interlocking circular template was used. This template provided a way to obtain consistent sample size and also held the hose sections in position for sample extraction. Each template containing the pantyhose section was placed in 10 ml of buffer for 4 hours. An untreated pair of pantyhose was used as the blank and tested the same as the samples. At the end of two hours, and again at 4 hours, the buffer solution was read at the appropriate wave length using a quartz curette. Results were calculated from the standard curve and reported in micrograms/square centimeter (ug/cm^2).

Row | SMILES | bonding to the fabric | Micrograms per/cm^2 @ 2 hr (amount extracted) | Micrograms per/cm @ 4 hr (amount extracted)
1 | O=c1c(-c2ccc(O)cc2)coc2cc(O)cc(O)c12 [Genistein, 4′,5,7-trihydroxyisoflavone] | most strongly bonded | 15.0 Micrograms per/cm^2 | 15.1 Micrograms per/cm
2 | O=C1O[C@H]([C@@H](O)CO)C(O)=C1O [Ascorbic Acid, ascorbic acid] | bind in adequate degrees | 0.6 Micrograms per/cm^2 | 0.7 Micrograms per/cm
3 | O=C(O)CCCC[C@@H]1CCSS1 (racemic) [Lipoic Acid, lipoic acid] | bind in adequate degrees | 1.2 Micrograms per/cm^2 | 1.5 Micrograms per/cm
